This passage reports IC50 results from patent US20260356860A1, “2-SUBSTITUTED 3,4A,5,7,8,8A-HEXAHYDRO-4H-THIOPYRANO[4,3-DJPYRIMIDIN-4-ONES FOR WOUND TREATMENT” (priority 2022, published 2026).

Assay [1] deals with HEK293 SuperTOPFlash reporter cells, Wnt promoter. The assay is described as follows: HEK CELL Wnt Assay (luciferase reporter). Type of assay: cell-based. Conditions: serial dilutions, with or without 50 ng/mL Wnt3a; 18 h. As to the method: In order to determine the effect of the compounds of Formula (I) on Wnt inhibition, an in vitro assay using HEK293 SuperTOPFlash reporter cells, with the Wnt promoter driving a luciferase reporter gene, were utilized. 40,000 HEK293 SuperTOPFlash reporter cells were seeded, per well, in a 48 well plate for 24 hours, prior to administration of serial dilutions of the compound of Formula (I) to individual wells. Serial dilutions ranging from […] to 1 nM of the compound of Formula (I) were added with or without 50 ng/mL Wnt3a (Time Biosciences) and allowed to incubate with the reporter cells for 18 hours. Reporter cells with no treatment were used as negative control.
A general note: Reporter assays use an easily measured gene product as a stand-in for the process of interest.

The target in a further assay is T1, Tankyrase 2 (TNKS2) (Homo sapiens, UniProt Q9H2K2).
T1 sequence (Q9H2K2 1-1166): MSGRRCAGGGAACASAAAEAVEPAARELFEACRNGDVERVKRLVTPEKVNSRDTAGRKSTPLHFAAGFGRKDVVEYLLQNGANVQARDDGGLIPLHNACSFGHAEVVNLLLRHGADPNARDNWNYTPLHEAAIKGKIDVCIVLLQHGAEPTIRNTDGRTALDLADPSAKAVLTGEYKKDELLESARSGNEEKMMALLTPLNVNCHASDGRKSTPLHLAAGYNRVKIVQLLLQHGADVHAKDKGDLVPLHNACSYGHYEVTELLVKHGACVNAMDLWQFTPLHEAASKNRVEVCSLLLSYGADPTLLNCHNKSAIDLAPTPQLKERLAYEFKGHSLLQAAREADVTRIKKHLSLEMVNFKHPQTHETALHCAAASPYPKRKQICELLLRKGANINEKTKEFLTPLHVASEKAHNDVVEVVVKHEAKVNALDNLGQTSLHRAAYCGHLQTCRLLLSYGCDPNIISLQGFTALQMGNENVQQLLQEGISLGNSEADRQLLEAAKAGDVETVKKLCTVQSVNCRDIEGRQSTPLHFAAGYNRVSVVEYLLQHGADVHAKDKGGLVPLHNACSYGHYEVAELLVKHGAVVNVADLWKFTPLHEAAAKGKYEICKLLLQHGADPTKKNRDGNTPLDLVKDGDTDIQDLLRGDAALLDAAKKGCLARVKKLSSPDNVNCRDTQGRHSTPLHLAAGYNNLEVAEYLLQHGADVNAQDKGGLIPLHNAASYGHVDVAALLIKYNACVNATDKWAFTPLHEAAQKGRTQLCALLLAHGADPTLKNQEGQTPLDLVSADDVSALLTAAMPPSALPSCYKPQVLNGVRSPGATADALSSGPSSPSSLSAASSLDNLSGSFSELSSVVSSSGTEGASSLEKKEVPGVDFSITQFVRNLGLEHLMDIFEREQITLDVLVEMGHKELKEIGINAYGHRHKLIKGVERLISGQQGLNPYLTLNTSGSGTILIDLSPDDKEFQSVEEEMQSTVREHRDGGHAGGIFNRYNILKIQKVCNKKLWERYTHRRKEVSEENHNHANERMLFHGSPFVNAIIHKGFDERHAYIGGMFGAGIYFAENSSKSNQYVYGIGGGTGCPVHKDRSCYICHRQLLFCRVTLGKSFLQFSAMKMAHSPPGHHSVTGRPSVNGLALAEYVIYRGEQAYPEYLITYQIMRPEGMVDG
The assay is described as follows: TNK2 Binding Assay (Tankyrase 2 ribosylation, chemiluminescence). The class given is biochemical. How it is done:
Tankyrase 2 assay (n=3) was performed with the following steps: step 1, coating a 96-well plate with 50 μL/well of histone solution; step 2, conducting ribosylation reaction; and step 3, detection.
Step 1: Coating a 96-Well Plate with 50 μL/Well of Histone Solution.
A 5× histone mixture was diluted 1:5 with PBS to make a 1× histone in PBS mixture. 50 μL of the histone mixture was added to each well and incubated at 4° C. overnight. The plate was washed three times using 200 μL PBST buffer (1×PBS containing 0.05% Tween*20 (polysorbate 20) per well. The plate was tapped onto a clean paper towel to remove the liquid. The wells were blocked by adding 200 μL of blocking buffer 3 to each well. The plate was incubated at room temperature for at least 90 minutes. The plate was washed three times with 200 μL PBST buffer. The plate was tapped onto a clean paper towel to remove the liquid.
A fresh solution of 10 mM DTT in water was prepared.
A master mix was prepared and delivered to each well (25 μL/well). Master mix delivered to each well: (2.5 μL of 10×PARP assay buffer (purchased from BPS Bioscience)+2.5 μL of PARP substrate mixture 2+17.5 μL of water+2.5 μL of 10 mM fresh DTT). The concentration of DTT in the master mix was 1 mM. 25 μL of master mix was added to each well.
1×PARP buffer with DTT was prepared. 10×PARP assay buffer was diluted to 1×PARP assay buffer containing DTT by adding 1 volume of 10×PARP assay buffer+1 volume of 10 mM DTT+8 volumes of water. The concentration of DTT in the 1×PARP assay buffer was 1 mM.
5 μL of a test inhibitor was added to each well labeled as “Test Inhibitor.” For the “Positive Control,” the PARP inhibitor, XAV939, was used. For the negative control, no inhibitor is added to the assay mix.
The Tankyrase 2 (TNKS2) enzyme on ice was thawed. The tube containing the enzyme was spun briefly to recover the full content of the tube. The amount of TNKS2 enzyme required for the assay was calculated and the enzyme was diluted to 0.5 ng/μL with 1×PARP assay buffer with DTT. 16) The final concentration of TNKS2 enzyme in the assay was 2 nM. The reaction was initiated by adding 10 μL of diluted TNKS2 enzyme to each well designated “Positive Control” and “Test Inhibitor.” To each well designated as “Blank,” 10 μL of 1×PARP assay buffer with DTT was added. The plate was incubated at room temperature for 1 hour. The plate was washed three times with 100 μL of PBST buffer and the plate was tapped onto a clean paper towel.
1) Streptavidin-HRP was diluted 1:50 in Blocking buffer (purchased from BPS Bioscience) 3.50 μL of diluted Streptavidin-RP was added to each well and incubated for 30 minutes at room temperature. The plate was washed three times with 100 μL of PBST buffer and tapped onto a clean paper towel. Just before use, 1 volume of ELISA ECL Substrate A and 1 volume of ELISA ECL Substrate B were mixed on ice; and 100 μL was added to each well. Immediately, the plate was read in a luminometer or microtiter-plate reader capable of reading chemiluminescence. The “Blank” value was subtracted from all other values.

One may read the IC50 as the midpoint of a concentration-inhibition curve. Low readings indicate greater potency in that assay, high ones weaker potency in that assay. In the case of `O=c1[nH]c(-c2ccc(-c3ccc(B(O)O)cc3O)cc2)nc2c1CSCC2` [Compound 28, (2-hydroxy-4′-(4-oxo-3,5,7,8-tetrahydro-4H-thiopyrano[4,3-d]pyrimidin-2-yl)-[1,1′-biphenyl]-4-yl)boronic acid], the IC50 (in assay [1]; on Tankyrase 2 (TNKS2)) was 2 nM throughout.
As for `COC(=O)NCCOC(C)(C)c1ccc(-c2ccc(-c3nc4c(c(=O)[nH]3)CSCC4)cc2)cc1` [Compound 29, methyl (2-((2-(4′-(4-oxo-3,5,7,8-tetrahydro-4H-thiopyrano[4,3-d]pyrimidin-2-yl)-[1,1′-biphenyl]-4-yl)propan-2-yl)oxy)ethyl)carbamate], the results for the IC50 (in assay [1]; on Tankyrase 2 (TNKS2)) were 100 nM and 1 nM, respectively.
